{
  "source": "paper PMC9774438",
  "about": "“Effects of Synthetic Short Cationic Antimicrobial Peptides on the Catalytic Activity of Myeloperoxidase, Reducing Its Oxidative Capacity” (Antioxidants, 2022)",
  "key": {"[1]": {"biological_target": "T1, myeloperoxidase (MPO) (Homo sapiens, UniProt P05164)", "T1 construct": "Native myeloperoxidase (MPO) was obtained from human leukocyte extract by successive chromatography on heparin-Sepharose and phenyl-agarose; from tissue; host or cells: human leukocyte extract", "T1 sequence (P05164 279-745 limits assumed)": "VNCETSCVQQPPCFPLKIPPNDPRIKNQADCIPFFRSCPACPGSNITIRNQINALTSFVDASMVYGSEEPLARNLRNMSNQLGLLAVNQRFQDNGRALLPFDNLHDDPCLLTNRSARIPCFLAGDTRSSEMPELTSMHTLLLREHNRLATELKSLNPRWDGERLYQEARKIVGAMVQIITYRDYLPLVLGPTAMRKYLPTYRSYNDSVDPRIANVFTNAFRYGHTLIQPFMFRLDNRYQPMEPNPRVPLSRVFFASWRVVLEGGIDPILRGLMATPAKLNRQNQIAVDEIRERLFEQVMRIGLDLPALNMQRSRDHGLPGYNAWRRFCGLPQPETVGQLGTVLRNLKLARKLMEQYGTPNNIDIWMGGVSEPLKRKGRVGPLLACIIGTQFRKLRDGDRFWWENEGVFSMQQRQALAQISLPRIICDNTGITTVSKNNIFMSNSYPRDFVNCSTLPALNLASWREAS", "T1 sequence (P05164 165-273 limits assumed)": "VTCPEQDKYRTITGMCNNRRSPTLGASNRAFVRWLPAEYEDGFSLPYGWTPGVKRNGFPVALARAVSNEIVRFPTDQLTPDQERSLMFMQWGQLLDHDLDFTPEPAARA", "assay": "Electrospray mass spectrometry of dityrosine cross-linked peptide dimer", "format": "biochemical", "conditions": "40 μM peptide, 0.4 μM MPO heme, 50 μM H2O2, 10 mM Na-phosphate; ESI-MS positive mode", "description": "Mass spectra were acquired using an Orbitrap Q Exactive HF-X mass spectrometer equipped with HESI source in the positive ion mode (Thermo Fisher Scientific, Waltham, MA, USA). Direct infusion syringe pump sampling was carried out with a […] Hamilton syringe at a flow rate of […]. The spray voltage was set at +3.5 kV, the sheath and auxiliary gas flow rate at 5 and 1, respectively; the S-lens RF level at 65; the capillary temperature at 250 °C. The resolution was set at 240,000, the AGC target at 1E6, and the maximum injection time at 50 ms. A summary spectrum was collected over 4 min and used for calculating S/N and measuring peak intensities. Before analysis, desalting of samples was carried out using C-18 ZIP-TIP (Millipore, Billerica, MA, USA), according to the manufacturer’s instructions. The eluate was mixed with 0.1% formic acid in DI water (18 MOhm) to a volume of 100 μL. The solutions prepared were used for direct infusion.\nAdditional proof for dityrosine formation upon incubation of Hm-AMP2 with H2O2-activated MPO was obtained by electrospray mass spectrometry which allowed the detection of a peptide product of the molecular weight of the dityrosine cross-linked peptide dimer. Dimerization of peptides via initial formation of a tyrosyl radical results in a 2 Da decrease in the double mass of the peptide to [2M − 2H]. […]"}, "[2]": {"conditions": "10 mM Na-phosphate pH 7.4; limits peptide/heme ratio to 45:1"}, "[3]": {"biological_target": "T1, myeloperoxidase (MPO)", "assay": "MPO heme absorbance spectra (Compound II formation and decay, MPO turnover)", "format": "biochemical", "conditions": "100 μM H2O2, 10 mM Na-phosphate pH 7.4", "description": "Native myeloperoxidase (MPO) was obtained from human leukocyte extract by successive chromatography on heparin-Sepharose and phenyl-agarose followed by gel-filtration on a Sephacryl S-200 HR, as previously described. The Reinheit Zahl value (A430 nm/A280 nm) for the purified protein was 0.85. The MPO concentration was determined as the heme concentration measured spectrophotometrically at 430 nm with a molar extinction coefficient of 91,000 M^−1 cm^−1 [35].\nSpectra of MPO were recorded on a Cary 50 Bio UV-Vis spectrophotometer (Varian, Mulgrave, Australia). Experiments were performed with Eppendorf UVette plastic UV/Vis cuvettes (Hamburg, Germany). An MPO concentration was 2 μM heme. MPO was mixed with CAMP in 10 mM Na-phosphate buffer (pH 7.4) supplemented with 0.2 mM DTPA. H2O2 was added as a microvolume of concentrated solution (100 μM final).\nTo elucidate the influence of CAMPs on MPO catalytic activity, we analyzed absorbance spectral changes for MPO activated by H2O2 in the presence of peptides. The spectra were obtained with 2 μM MPO heme and 100 μM H2O2 in 10 mM Na-phosphate buffer, pH 7.4. All reactions in these and further experiments were performed in buffers supplemented with 0.2 mM diethylenetriaminepentaacetic acid (DTPA) to sequester free transition metal ions to prevent tyrosine and cysteine autooxidation.\nFigure 2 Time courses of spectral absorbance changes at 430 nm (indicative of MPO ground state) and 455 nm (indicative of Compound II) in the absence and presence of cationic antimicrobial peptides (CAMPs) in the system MPO/H2O2. The name of CAMP is given in parentheses after the panel designation (A–D). H2O2 (100 µM) was added to MPO (2 µM heme) or MPO preincubated with peptides at different peptide/heme molar ratios for 5 min in 10 mM Na-phosphate buffer, pH 7.4. Spectra were taken before and 0.25 min, 5 min, 10 min, and so on after adding H2O2. The initial absorbance values (before H2O2 addition) are shown as a red square marker. […]"}},
  "note": "Entries after “also recorded” stand apart in the source; their conditions may differ.",
  "data": [
    {"sequence": "EKRWRRLIFNYF [Hm-AMP2, synthetic cationic antimicrobial peptide …]", "values": [
      {"measurement": "increase of [2M − 2H + 3H]3+ dimer ion signal (m/z 1152.4) vs control", "setting": "[1]", "value": 20, "unit": "fold"},
      {"measurement": "solubility in phosphate buffer", "setting": "[2]", "value": "poor solubility"},
      {"measurement": "effect on H2O2-induced formation and decay of MPO Compound II / MPO turnover (summary)", "setting": "[3]; 2 μM MPO heme, all concentrations", "value": "accelerated MPO turnover; also recorded: Acceleration of CII reduction to native MPO"},
      {"measurement": "effect on Compound II decay to native MPO", "setting": "[3]; peptide/heme molar ratio up to 45:1, 2 μM MPO heme", "value": "accelerated Compound II decay to native MPO, with the effect being greater at a higher peptide/heme molar ratio"}
    ]}
  ]
}
